Test results from ChEMBL document CHEMBL1201862, “PubChem BioAssay data set” (2004).
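In this assay, cells in 96-well plates receive the compound at five concentrations for 48 hours. Endpoints are linearly interpolated between the surrounding concentrations. Abbreviation: GI50, concentration required for 50% inhibition of growth.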 Active and inactive are the calls of the source. Cut-off read from the data, not from the text of the source: active = GI50 up to about 1.1 µM and inactive = higher.

Assays:
Experiment in all cases: growth of human tumour cells (NCI), 48 h
[1] = tested on: MCF7
[2] = tested on: HOP-62
[3] = tested on: UACC-62
[4] = tested on: CAKI-1
[5] = tested on: SF-268
[6] = tested on: HOP-92
[7] = tested on: NCI-H522
[8] = tested on: SF-539
[9] = tested on: HCT-15
[10] = tested on: UACC-257
[11] = tested on: RXF 393
[12] = tested on: A498
[13] = tested on: OVCAR-5
[14] = tested on: DU-145
[15] = tested on: A549
[16] = tested on: NCI/ADR-RES
[17] = tested on: LOX IMVI
[18] = tested on: RPMI-8226
[19] = tested on: MDA-MB-435
[20] = tested on: IGROV-1

Compound	GI50 [1]	GI50 [2]	GI50 [3]	GI50 [4]	GI50 [5]	GI50 [6]	GI50 [7]	GI50 [8]	GI50 [9] [µM]	GI50 [10]	GI50 [11]	GI50 [12]	GI50 [13]	GI50 [14]	GI50 [15]	GI50 [16]	GI50 [17]	GI50 [18]	GI50 [19]	GI50 [20]
O=C1c2cccc3cccc(c23)C(=O)N1CCCNCCCNCCCCNCCCNCCCN1C(=O)c2cccc3cccc(c23)C1=O	0.449 µM (active)	3.79 µM (inactive)	2.82 µM (inactive)	12.9 µM (inactive)	1.93 µM (inactive)	5.05 µM (inactive)	0.789 µM (active)	3.52 µM (inactive)	12.8	6.7 µM (inactive)	3.34 µM (inactive)	6.38 µM (inactive)	6.14 µM (inactive)	3.66 µM (inactive)	2.67 µM (inactive)	14.7 µM (inactive)	2.55 µM (inactive)	1.33 µM (inactive)	2.73 µM (inactive)	1.96 µM (inactive)
O=C1c2cc3ncsc3cc2C(=O)c2c(O)ccc(O)c21	> 100 µM (inactive)	> 100 µM (inactive)	> 100 µM (inactive)	> 100 µM (inactive)	> 100 µM (inactive)	> 100 µM (inactive)	> 100 µM (inactive)	> 100 µM (inactive)	> 100	> 100 µM (inactive)	> 100 µM (inactive)	> 100 µM (inactive)	> 100 µM (inactive)	> 100 µM (inactive)	> 100 µM (inactive)	> 100 µM (inactive)	> 100 µM (inactive)	> 100 µM (inactive)	> 100 µM (inactive)	> 100 µM (inactive)
COc1ccc(C2c3c(-c4ccccc4)nn(-c4ccccc4)c3Oc3ncn(N)c(=N)c32)cc1OC (stereo not given)	1.84 µM (inactive)	1.77 µM (inactive)	1.92 µM (inactive)	1.86 µM (inactive)	3.03 µM (inactive)	2.33 µM (inactive)	2.21 µM (inactive)	1.69 µM (inactive)	1.84	1.95 µM (inactive)	1.84 µM (inactive)	7.16 µM (inactive)	3.9 µM (inactive)	2.89 µM (inactive)	2.24 µM (inactive)	2.21 µM (inactive)	1.69 µM (inactive)	2.73 µM (inactive)	1.85 µM (inactive)	1.51 µM (inactive)
COc1ccc2c(c1)C1c3ccccc3CCN1CCC2 (stereo not given)	41.1 µM (inactive)	58.6 µM (inactive)	23.7 µM (inactive)	> 100 µM (inactive)	56.6 µM (inactive)	70.3 µM (inactive)	28.4 µM (inactive)	47.3 µM (inactive)	39.4	39.6 µM (inactive)	47.6 µM (inactive)	69.3 µM (inactive)	93.1 µM (inactive)	> 100 µM (inactive)	51.2 µM (inactive)	31.2 µM (inactive)	44.7 µM (inactive)	28.8 µM (inactive)	19.9 µM (inactive)	56.6 µM (inactive)
N#C/C(=C1C=C(Br)/C(=N\O)C=C\1Cl)c1cccc2ccccc12	4.93 µM (inactive)	10.3 µM (inactive)	4.12 µM (inactive)	3.48 µM (inactive)	4.47 µM (inactive)	8.57 µM (inactive)	2.52 µM (inactive)	1.96 µM (inactive)	4.73	6.62 µM (inactive)	1.37 µM (inactive)	9.02 µM (inactive)	3.55 µM (inactive)	3.31 µM (inactive)	9.84 µM (inactive)	4.01 µM (inactive)	4.29 µM (inactive)	5.77 µM (inactive)	2.62 µM (inactive)	6.24 µM (inactive)
O=C(CC(C(=O)c1cccs1)c1ccsc1)c1ccco1 (stereo not given)	21.1 µM (inactive)	64.1 µM (inactive)	22.8 µM (inactive)	29.1 µM (inactive)	27.6 µM (inactive)	> 100 µM (inactive)	20 µM (inactive)	27.5 µM (inactive)	21.5	37.9 µM (inactive)	20.5 µM (inactive)	27.5 µM (inactive)	11.5 µM (inactive)	31 µM (inactive)	21.6 µM (inactive)	20.4 µM (inactive)	37.3 µM (inactive)	73.5 µM (inactive)	20.3 µM (inactive)	47.6 µM (inactive)
O=c1c(C(c2ccc3c(c2)Cc2ccccc2-3)c2c(O)oc3ccccc3c2=O)c(O)oc2ccccc12	22.9 µM (inactive)	32.5 µM (inactive)	22.3 µM (inactive)	20.3 µM (inactive)	23.9 µM (inactive)	19.1 µM (inactive)	21.9 µM (inactive)	21.4 µM (inactive)	22.2	34.6 µM (inactive)	18.2 µM (inactive)	38.5 µM (inactive)	23.7 µM (inactive)	33.6 µM (inactive)	19.5 µM (inactive)	> 100 µM (inactive)	26.3 µM (inactive)	44.9 µM (inactive)	31 µM (inactive)	39.3 µM (inactive)
Cn1c2c3ccccc3nc-2c(O)c2ccccc21 [HYDROXYCRYPTOLEPINE]	> 100 µM (inactive)	> 100 µM (inactive)	> 100 µM (inactive)	8.91 µM (inactive)	0.735 µM (active)	> 100 µM (inactive)	> 100 µM (inactive)	50.5 µM (inactive)	53.3	> 100 µM (inactive)	> 100 µM (inactive)	> 100 µM (inactive)	> 100 µM (inactive)	3.46 µM (inactive)	> 100 µM (inactive)	> 100 µM (inactive)	> 100 µM (inactive)	45.7 µM (inactive)	> 100 µM (inactive)	35.4 µM (inactive)
CCOC(=O)CCC(NC(=O)Cc1ccc(Oc2nc3ccccc3nc2-c2cccs2)cc1)C(=O)OCC (stereo not given)	> 100 µM (inactive)	1.73 µM (inactive)	38.4 µM (inactive)	39.3 µM (inactive)	1.64 µM (inactive)	14 µM (inactive)	52 µM (inactive)	5.14 µM (inactive)	> 100	> 100 µM (inactive)	2.3 µM (inactive)	19.4 µM (inactive)	8.97 µM (inactive)	7.45 µM (inactive)	7.19 µM (inactive)	4.95 µM (inactive)	20.7 µM (inactive)	> 100 µM (inactive)	88.7 µM (inactive)	47.5 µM (inactive)
c1ccc2c(c1)CCN(C1=NCCO1)C2	> 10 µM (inactive)	> 10 µM (inactive)	> 10 µM (inactive)	> 10 µM (inactive)	> 10 µM (inactive)	> 10 µM (inactive)	> 10 µM (inactive)	> 10 µM (inactive)	> 10	> 10 µM (inactive)	> 10 µM (inactive)	> 10 µM (inactive)	> 10 µM (inactive)	> 10 µM (inactive)	> 10 µM (inactive)	> 10 µM (inactive)	> 10 µM (inactive)	> 10 µM (inactive)	> 10 µM (inactive)	> 10 µM (inactive)
